Results: patent publication US20220290237A1, “METHOD FOR PREDICTING THE RESPONSE OF ANTIPSYCHOTIC DRUGS” (INSERM (INSTITUT NATIONAL DE LA SANTÉ ET DE LA RECHERCHE …, priority 2019, published 2022)

Test system: total RNA from blood samples
Experiment: qRT-PCR replication of expression changes after amisulpride treatment in 24 independent subjects
Format: in vivo, human
Conditions: 4 weeks amisulpride
Method: Total RNA was extracted from blood samples, collected in PAXgene Blood RNA tubes, with the PAXgene Blood miRNA Kit (QIAGEN GmbH, Hilden, Germany) using a standard protocol on QlAcube robot (QIAGEN). A DNase digestion procedure was added after extraction. Total RNA was purified using the RNA Clean & Concentrator™-5 kit following the manufacturer's instructions (Zymo Research Corp., Irvine, USA). RNA quantification was performed on a NanoDrop™ 8000 spectrophotometer, in duplicate. The quality and integrity of the RNA samples were assessed using an Agilent Bioanalyzer 2100 and the RNA6000 Nano Labchip kit (Agilent Technologies). Only samples with an RNA integrity number (RIN) higher than 7 were selected. Three hundred and seventy-six RNA samples fulfilled quality control criteria for RNA-seq analyses, corresponding to two RNA samples (one at inclusion and one after 4 weeks of treatment) for 188 subjects. Forty-eight additional RNAs were available for replication studies, in 24 independent subjects.
Five-hundred nanograms of total RNA was reverse-transcribed using the High-Capacity cDNA Reverse Transcription kit following standard protocol (Thermo Fisher Scientific, Waltham, Mass., U.S.A.). Mixtures of the cDNAs and the TaqMan Universal PCR Master Mix were further loaded in the 384-well low density TaqMan array microfluidic cards (Thermo Fisher Scientific). Real-time PCR reactions were then carried out in an ABI Prism 7900HT sequence detection system (Thermo Fisher Scientific) using manufacturer's instructions. Each assay was carried out in duplicate and threshold cycle (Ct) values were automatically calculated by the SDS 2.2 software (Thermo Fisher Scientific), after having manually set the analysis threshold. Two reference genes (18S, and GUSB) with various expression levels were included in the analyses to perform a relative RNA quantification, using the most suitable reference gene.
For the qRT-PCR analysis, ΔCt values of each gene of interest were calculated before and after treatment and then normalized by subtracting the ΔCt values of the reference gene to generate ΔΔCt values. To select genes with significant expression changes after treatment, the medians of fold changes (2-ΔΔCt) were subsequently compared to a reference (Me=1) using Wilcoxon Rank Sum Test, and an adjusted p-values below 0.1 was considered to be significant.
To validate these DEGs, we used qRT-PCR in 24 independent subjects from the OPTiMiSE cohort, who were not included in the RNA-seq analyses and with a more than 20% improvement in total PANSS score after treatment (FIG. 1). We selected only brain-expressed protein-coding genes that were differentially expressed after treatment in good responders only. In addition, we restricted our selection to genes for which the expression change was correlated with symptom improvement (Table 1). […] In addition, two genes (P4HA2 and TRPC6) were removed from replication studies, because they were not detectable by qRT-PCR. Eleven genes were thus tested in the replication sample.

In the case of CCN1CCCC1CNC(=O)c1cc(S(=O)(=O)CC)c(N)cc1OC (centres unmarked) [amisulpride, 4-amino-N-((1-ethyl-2-pyrrolidinyl)methyl)-5-(etgylsulfonyl)-2-methoxybenzamide], the “FC, fold-change at week 4 relative to the expression level at inclusion: ACSL5” value (ACSL5, replication sample (n = 24)) is reported as 1.06, the “FC, fold-change at week 4 relative to the expression level at inclusion: ALPL” value (ALPL, replication sample (n = 24)) is reported as 0.77 and the “FC, fold-change at week 4 relative to the expression level at inclusion: CA4” value (CA4, replication sample (n = 24)) is reported as 0.71. For the same compound, the “FC, fold-change at week 4 relative to the expression level at inclusion: DGAT2” value (DGAT2, replication sample (n = 24)) was 0.73, the “FC, fold-change at week 4 relative to the expression level at inclusion: DHRS13” value (DHRS13, replication sample (n = 24)) was 0.82 and the “FC, fold-change at week 4 relative to the expression level at inclusion: GALNT14” value (GALNT14, replication sample (n = 24)) was 0.76. For the same compound, the “FC, fold-change at week 4 relative to the expression level at inclusion: HOMER3” value (HOMER3, replication sample (n = 24)) was 0.84, the “FC, fold-change at week 4 relative to the expression level at inclusion: KAZN” value (KAZN, replication sample (n = 24)) was 0.67 and the “FC, fold-change at week 4 relative to the expression level at inclusion: KIAA0319” value (KIAA0319, replication sample (n = 24)) was 0.77. The “FC, fold-change at week 4 relative to the expression level at inclusion: SLC4A4” value (SLC4A4, replication sample (n = 24)) was 0.84 and the “FC, fold-change at week 4 relative to the expression level at inclusion: WLS” value (WLS, replication sample (n = 24)) was 0.85.
